Laboratory results from patent publication US20230295087A1, “AGONISTS OF ROR GAMMAt” (BRISTOL-MYERS SQUIBB COMPANY, priority 2019, published 2023).

Molecular target: T1, human RORgT (Homo sapiens, UniProt P51449)
T1 construct: expressed in transfected cells
T1 sequence (P51449 267-516): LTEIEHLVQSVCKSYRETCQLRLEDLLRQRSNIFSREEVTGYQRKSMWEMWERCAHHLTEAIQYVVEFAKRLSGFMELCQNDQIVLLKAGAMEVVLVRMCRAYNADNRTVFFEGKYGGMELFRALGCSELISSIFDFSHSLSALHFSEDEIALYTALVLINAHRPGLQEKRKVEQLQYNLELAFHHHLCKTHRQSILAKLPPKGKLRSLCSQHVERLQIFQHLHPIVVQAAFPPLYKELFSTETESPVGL
Assay: RORgT Gal4 Luciferase Reporter Gene Assay
Type: cell-based
Conditions: engineered Jurkat cells overexpressing RORgT (LBD or full length) fused with Gal4 Luc reporter; 18 hours at 37° C.; luminescence
Experimental: RORgT Gal4 Luciferase Reporter Gene Assay
25 µL of cryopreserved Jurkat cells over expressing ligand binding domain (LBD) of RORgT (aa267-516, NM_005060) and Gal4 Luc, or full length of human RORgT and Gal4 Luc, were plated in 384-well solid white cell culture plates (PerkinElmer 6007899), with a density of 10,000 cells/well in RPMI 1640 cell culture media (Gibco 11875-085). The media contained 0.1% BSA, 10 mM HEPES (Gibco 15360-080), […] Sodium Pyruvate (Gibco 11360-040), […] Hygromycin B (Invitrogen 10687-010), and […] Blasticidin (Invitrogen R210-01).
100 nL of compound at varying concentrations in 3-fold serial dilution, with final concentrations ranging from 40 µM to 0.67 nM, were added to the cells using Labcyte Echo 550. The compound and the cells were incubated for 18 hours at 37° C. in a cell culture incubator. Cells were then lysed with 15 uL of Steady-Glo Luciferase Assay reagent (Promega EZ550), followed by centrifuging the assay plates at 1500 RPM for 1 minute. Subsequently, the plates were read on the Envision (PerkinElmer). The inhibition of constitutive activity of RORgT achieved by graded concentrations of compound was calculated as a percentage of the luminescence signal window reduction over a control compound.

EC50	SMILES
272 nM	O=C(O)C1CCC(C(=O)N2CC[C@@]3(S(=O)(=O)c4ccccc4)c4ccc(OCc5c(Cl)cccc5Cl)cc4CC[C@@H]23)CC1 (stereo partly drawn) [Example 66, 4-[(3aR,9bR)-9b-(benzenesulfonyl)-7-[(2,6-dichlorophenyl)methoxy]-1H,2H,3H,3aH,4H,5H,9bH-benzo[e]indole-3-carbonyl]cyclohexane-1-carboxylic acid]
10 nM	NC(=O)N1CCC(C(=O)N2CC[C@@]3(S(=O)(=O)c4ccccc4)c4ccc(OCc5c(F)cccc5Cl)cc4CC[C@@H]23)CC1 [Example 141, 4-[(3aR,9bR)-9b-(benzenesulfonyl)-7-[(2-chloro-6-fluorophenyl)methoxy]-1H,2H,3H,3aH,4H,5H,9bH-benzo[e]indole-3-carbonyl]piperidine-1-carboxamide]
16 nM	CC(=O)N1CCC(C(=O)N2CC[C@@]3(S(=O)(=O)c4ccc(F)cc4)c4ccc(OCc5c(F)cccc5C(F)(F)F)cc4CC[C@@H]23)CC1 [Example 182, 1-{4-[(3aR,9bR)-7-{[2-fluoro-6-(trifluoromethyl)phenyl]methoxy}-9b-(4-fluorobenzenesulfonyl)-1H,2H,3H,3aH,4H,5H,9bH-benzo[e]indole-3-carbonyl]piperidin-1-yl}ethan-1-one]
15 nM	CC(=O)N1CCN(C(=O)N2CC[C@@]3(S(=O)(=O)c4ccccc4)c4ccc(OCc5c(Cl)cccc5Cl)cc4CC[C@@H]23)CC1 [Example 94, 1-{4-[(3aR,9bR)-9b-(benzenesulfonyl)-7-[(2,6-dichlorophenyl)methoxy]-1H,2H,3H,3aH,4H,5H,9bH-benzo[e]indole-3-carbonyl]piperazin-1-yl}ethan-1-one]
153 nM	NC(=O)CN1CC[C@@]2(S(=O)(=O)c3ccccc3)c3ccc(OCc4c(Cl)cccc4Cl)cc3CC[C@@H]12 [Example 70, 2-[(3aR,9bR)-9b-(benzenesulfonyl)-7-[(2,6-dichlorophenyl)methoxy]-1H,2H,3H,3aH,4H,5H,9bH-benzo[e]indol-3-yl]acetamide]
51 nM	O=C(O)[C@H]1CC[C@H](C(=O)N2CC[C@@]3(S(=O)(=O)c4ccc(F)cc4)c4ccc(Oc5cccnc5F)cc4CC[C@@H]23)CC1 [Example 116, (1r,4r)-4-[(3aR,9bR)-9b-(4-fluorobenzenesulfonyl)-7-[(2-fluoropyridin-3-yl)oxy]-1H,2H,3H,3aH,4H,5H,9bH-benzo[e]indole-3-carbonyl]cyclohexane-1-carboxylic acid]
62 nM	O=C(C1CCS(=O)(=O)N1)N1CC[C@@]2(S(=O)(=O)c3ccccc3)c3ccc(OCc4c(Cl)cccc4Cl)cc3CC[C@@H]12 (stereo partly drawn) [Example 63, 3-[(3aR,9bR)-9b-(benzenesulfonyl)-7-[(2,6-dichlorophenyl)methoxy]-1H,2H,3H,3aH,4H,5H,9bH-benzo[e]indole-3-carbonyl]-1λ^6,2-thiazolidine-1,1-dione]
210 nM	O=C1CCCN1CC(=O)N1CC[C@@]2(S(=O)(=O)c3ccccc3)c3ccc(OCc4c(Cl)cccc4Cl)cc3CC[C@@H]12 [Example 79, 1-{2-[(3aR,9bR)-9b-(benzenesulfonyl)-7-[(2,6-dichlorophenyl)methoxy]-1H,2H,3H,3aH,4H,5H,9bH-benzo[e]indol-3-yl]-2-oxoethyl}pyrrolidin-2-one]
5.3 nM	CC(=O)N1CCC(C(=O)N2CC[C@@]3(S(=O)(=O)c4ccc(F)cc4)c4ccc(OCc5c(F)cc(F)cc5Cl)cc4CC[C@@H]23)CC1 [Example 214, 1-{4-[(3aR,9bR)-7-[(2-chloro-4,6-difluorophenyl)methoxy]-9b-(4-fluorobenzenesulfonyl)-1H,2H,3H,3aH,4H,5H,9bH-benzo[e]indole-3-carbonyl]piperidin-1-yl}ethan-1-one]
58 nM	NS(=O)(=O)CC(=O)N1CC[C@@]2(S(=O)(=O)c3ccc(F)cc3)c3ccc(OCc4c(F)cccc4Cl)cc3CC[C@@H]12 [Example 154, 2-[(3aR,9bR)-7-[(2-chloro-6-fluorophenyl)methoxy]-9b-(4-fluorobenzenesulfonyl)-1H,2H,3H,3aH,4H,5H,9bH-benzo[e]indol-3-yl]-2-1 oxoethane-1-sulfonamide]
